pEC50: −log10 of the molar value.
Legend:
[1] = system: genotype A, "Long" strain RSV; experiment: RSV-A assay: CPE protection in HEp-2 cells, ATPlite readout; assay type: cell-based, human respiratory syncytial virus; conditions: human respiratory syncytial virus, HEp-2, read-out: Human RSV-A (“Long” strain) EC50
In short: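 HEp-2 cells (8,000/well) with 2-fold compound dilutions in duplicate, infected with Long-strain RSV at MOI 0.1 and incubated 5 days. Cell ATP measured by ATPlite luminescence to give EC50; uninfected parallel plate gives CC50.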

[2] = system: RSV genotype B, strain 9320; experiment: RSV-B assay: A549 cells infected with RSV-B, qPCR or ATPlite readout; assay type: cell-based; conditions: human respiratory syncytial virus, A549, 144 h, read-out: Human RSV-B EC50
Excerpt: HEp-2 cells, (originally derived from tumors grown in irradiated-cortisonised weanling rats that had been injected with epidermoid carcinoma tissue from a person's larynx, but later found to be indistinguishable from HeLa cells by PCR DNA analysis), were used for the culturing of genotype B, strain 9320. Flasks were inoculated with RSV-B and viral stocks were collected once cytopathic effect (CPE) was greater than […]. Viral stocks in 25% sucrose media were snap frozen using liquid nitrogen to increase viral stability. Viral stock titers were quantified by tissue culture infectious dose 50% (TCID50) using 8,000 cells per well and 5-fold viral dilutions across a 96-well plate, cultured for 4 days. Viral stock titers were also quantified by a plaque forming unit assay, as described elsewhere.
The assay is run as follows: A549 cells (originally derived through explant culture from a person's carcinomatous lung tissue) are seeded into the inner 60 wells of a 96-well plate at 3,000 cells per well in a volume of 50 μL using A549 growth media (F-12K Media, 1% Penn/Strep, 1% nonessential amino acids, 10% heat-inactivated FBS). 2-fold serial dilutions of control and test compounds are added to the wells in duplicate in a total volume of 25 μL. Viral stock is then added to the wells at a multiplicity of infection (MOI) of 0.5 in a volume of 25 μL, bringing the total volume of each well to 100 μL. The MOI is calculated using the PFU/mL, or TCID50 if unavailable. Each 96-well plate has a control column of 6 wells with cells and virus but no compound (negative control, max CPE), a column with cells but no compound or virus (positive control, minimum CPE), and a column with no cells or virus or compound (background plate/reagent control). The control wells with cells but no virus are given an additional 25 μL of growth media containing an equal quantity of sucrose as those wells receiving the viral stock in order to keep consistent in media and volume conditions. The outer wells of the plate are filled with 125 μL of moat media (DMEM, 1% Penn/Strep) to act as a thermal and evaporative moat around the test wells. 6 days post infection, the plates are read using qPCR or ATP lite (50 μL added per well), which quantifies the amount of ATP (a measure of cell health) present in each well. Assay plates treated with APTlite are read using the Envision luminometer. […] EC50 ranges are as follows: A <0.4 μM; B 0.4-0.8 μM; C >0.8 μM.

[3] = system: HEp-2 cells; experiment: Cytotoxicity in parallel to the RSV-A assay (no virus), ATPlite readout; assay type: cell-based, human
In short: (§1)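 HEp-2 cells at 8,000/well in DMEM with 10% heat-inactivated FBS received 2-fold serial compound dilutions in duplicate and growth media in place of virus. After 5 days cell viability was read as ATP content by ATPlite luminescence to give CC50.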

[4] = as above; assay type: cell-based, human; conditions: human, HEp-2 cells (uninfected)
In short: as §1

## O=C1Nc2ccccc2C(c2ccccc2)=N[C@@H]1Nc1nnc(-c2ccc(F)cc2)o1 [Example 7a]
[1]
  pEC50: 6.10 to 6.40
[2]
  pEC50: < 6.10
[3]
  CC50: > 50000 nM

## O=C1Nc2ccccc2C(c2ccccc2)=NC1Nc1nnc(-c2ccc3ncsc3c2)o1 (stereo not shown) [Example 42]
[1]
  pEC50: 6.10 to 6.40
[4]
  CC50 at 5 days: > 50000 nM

## O=C1Nc2ccccc2C(c2ccccc2)=N[C@@H]1Nc1nnc(-c2ncc(C(F)(F)F)cc2N2CC3CCC(C2)O3)o1 [Example 251]
[1]
  pEC50: > 6.40
[2]
  pEC50: > 6.40

## Cc1ccc(-c2nnc(N[C@H]3N=C(c4ccccc4)c4ccccc4NC3=O)o2)c(N2CCOCC2)n1 [Example 252]
[1]
  pEC50: > 6.40
[2]
  pEC50: > 6.40

## C[C@H]1CN(c2ncccc2-c2nnc(NC3N=C(c4ccccc4)c4ccccc4NC3=O)o2)CCO1 (stereo partly shown) [Example 263]
[1]
  pEC50: 6.10 to 6.40
[2]
  pEC50: 6.10 to 6.40

## COC1CCN(c2cc(C(F)(F)F)cnc2-c2nnc(N[C@H]3N=C(c4ccccc4)c4ccccc4NC3=O)o2)CC1 [Example 268]
[1]
  pEC50: < 6.10
[2]
  pEC50: 6.10 to 6.40

## O=C1Nc2ccccc2C(c2ccccc2)=N[C@@H]1Nc1nnc(-c2ncc(C(F)(F)F)cc2N2CCC(F)CC2)o1 [Example 269]
[1]
  pEC50: < 6.10
[2]
  pEC50: 6.10 to 6.40

## Cc1nc(-c2nnc(N[C@H]3N=C(c4ccccc4)c4ccccc4NC3=O)o2)c(N2CCOCC2)s1 [Example 272]
[1]
  pEC50: > 6.40
[2]
  pEC50: > 6.40

## O=C1Nc2ccccc2C(c2ccccc2)=N[C@@H]1Nc1nnc(-c2ccc(C(F)(F)F)nc2N2CC3CCC(C2)O3)o1 [Example 276]
[1]
  pEC50: 6.10 to 6.40
[2]
  pEC50: < 6.10

## C[C@@H]1CN(c2cc(C(F)(F)F)cnc2-c2nnc(N[C@H]3N=C(c4ccccc4)c4ccccc4NC3=O)o2)CCO1 [Example 277]
[1]
  pEC50: > 6.40
[2]
  pEC50: > 6.40

## C[C@H]1CN(c2cc(C(F)(F)F)cnc2-c2nnc(N[C@H]3N=C(c4ccccc4)c4ccccc4NC3=O)o2)CCO1 [Example 278]
[1]
  pEC50: > 6.40
[2]
  pEC50: > 6.40

## COCCOc1cc(C#N)ccc1-c1nnc(N[C@H]2N=C(c3ccccc3)c3ccccc3NC2=O)o1 [Example 300]
[1]
  pEC50: > 6.40
[2]
  pEC50: > 6.40

## N#CCCNc1cc(C(F)(F)F)cnc1-c1nnc(N[C@H]2N=C(c3ccccc3)c3ccccc3NC2=O)o1 [Example 303]
[1]
  pEC50: > 6.40
[2]
  pEC50: > 6.40

## N#Cc1cnc(-c2nnc(N[C@H]3N=C(c4ccccc4)c4ccccc4NC3=O)o2)c(N2CC3CCC(C2)O3)c1 [Example 304]
[1]
  pEC50: > 6.40
[2]
  pEC50: > 6.40

## O=C1Nc2ccccc2C(c2ccccc2)=N[C@@H]1Nc1nnc(-c2nc3ccccc3cc2N2CCOCC2)o1 [Example 322]
[1]
  pEC50: > 6.40
[2]
  pEC50: > 6.40

## O=C1Nc2ccccc2C(c2ccccc2)=N[C@@H]1Nc1nnc(-c2ncsc2N2CCOCC2)o1 [Example 336]
[1]
  pEC50: > 6.40
[2]
  pEC50: > 6.40

## O=C1Nc2ccccc2C(c2ccccc2)=N[C@@H]1Nc1nnc(-c2nc(C3CC3)sc2N2CCOCC2)o1 [Example 338]
[1]
  pEC50: > 6.40
[2]
  pEC50: > 6.40

## O=C1Nc2ccccc2C(c2ccccc2)=N[C@@H]1Nc1nnc(-c2nc(C(F)(F)F)sc2N2CCOCC2)o1 [Example 339]
[1]
  pEC50: > 6.40
[2]
  pEC50: > 6.40

## O=C1Nc2ccccc2C(c2ccccc2)=N[C@@H]1Nc1nnc(-c2nc(-c3ccccc3)sc2N2CCOCC2)o1 [Example 340]
[1]
  pEC50: > 6.40
[2]
  pEC50: > 6.40

## O=C1Nc2ccccc2C(c2ccccc2)=N[C@@H]1Nc1nnc(-c2nc(-c3ccccn3)sc2N2CCOCC2)o1 [Example 341]
[1]
  pEC50: > 6.40
[2]
  pEC50: > 6.40

## O=C1Nc2ccccc2C(c2ccccc2)=N[C@@H]1Nc1nnc(-c2csc(N3CCOCC3)n2)o1 [Example 351]
[1]
  pEC50: 6.10 to 6.40
[2]
  pEC50: 6.10 to 6.40

## O=C1Nc2c(F)cccc2C(c2ccccc2)=N[C@@H]1Nc1nnc(-c2ccccc2N2CCOCC2)o1 [Example 355a]
[1]
  pEC50: > 6.40
[2]
  pEC50: > 6.40

## O=C1Nc2ccccc2C(c2ccccc2)=NC1Nc1nnc(-c2ccc(-n3cccn3)cc2)[nH]1 (stereo not shown) [Example 364]
[1]
  pEC50: > 6.40
[2]
  pEC50: 6.10 to 6.40

## N#Cc1ccc(-c2ccc(NC3N=C(c4ccccc4)c4ccccc4NC3=O)nn2)cc1 (stereo not shown) [Example 377]
[1]
  pEC50: > 6.40
[2]
  pEC50: > 6.40

## CCc1nc(-c2nnc(N[C@H]3N=C(c4ccccc4)c4ccccc4NC3=O)o2)c(N2CCOCC2)s1 [Example 385]
[1]
  pEC50: > 6.40
[2]
  pEC50: > 6.40

## O=C1Nc2ccccc2C(c2ccccc2)=N[C@@H]1Nc1nnc(-c2nc(C3CCC3)sc2N2CCOCC2)o1 [Example 387]
[1]
  pEC50: > 6.40
[2]
  pEC50: > 6.40

## O=C1Nc2ccccc2C(c2ccccc2)=N[C@@H]1Nc1nnc(-c2nc(-c3cccnc3)sc2N2CCOCC2)o1 [Example 388]
[1]
  pEC50: > 6.40
[2]
  pEC50: > 6.40

## CC(C)n1cc(-c2nnc(N[C@H]3N=C(c4ccccc4)c4ccccc4NC3=O)o2)c(N2CCOCC2)n1 [Example 403]
[1]
  pEC50: > 6.40
[2]
  pEC50: > 6.40

## CC(F)(F)c1nc(-c2nnc(N[C@H]3N=C(c4ccccc4)c4ccccc4NC3=O)o2)c(N2CCOCC2)s1 [Example 407]
[1]
  pEC50: > 6.40
[2]
  pEC50: > 6.40

## O=C1Nc2ccccc2C(c2ccccc2)=N[C@@H]1Nc1nnc(-c2nc(-c3ccncc3)sc2N2CCOCC2)o1 [Example 429]
[1]
  pEC50: > 6.40
[2]
  pEC50: > 6.40
